Experimental data published in paper PMC9356076, “An Integrated Pharmacological Counselling Approach to Guide Decision-Making in the Treatment with CDK4/6 Inhibitors for Metastatic Breast Cancer” (Frontiers in Pharmacology, 2022).

Columns and labels:
[1] = system: HR-positive/HER2-negative MBC patients; assay: Adverse drug reactions in treated patients, graded by CTCAE Version 5.0; format: in vivo, human; conditions: palbociclib 100 mg/day
Source text: (§1) Our counselling service was already available for other KI used in oncology as imatinib, sorafenib, regorafenib, sunitinib, lenvatinib, and three PARP inhibitors: olaparib, niraparib, and rucaparib. Written informed consent was obtained for pharmacogenetic and TDM analyses and the publication of the here presented reports. Any potentially identifying information was omitted. Data concerning age, disease, stage, and molecular profiling, treatment regimen and setting, drug dose, adverse drug reactions, and coadministered treatments were retrieved from the electronic medical record upon patients’ reporting by the prescribing medical oncologist. Toxicities were retrospectively collected through clinical records revision and graded according to Common Terminology Criteria for Adverse Events (CTCAE) Version 5.0.

[2] = system: HR-positive/HER2-negative MBC patients; assay: Patient's clinical outcome of CDKi treatment for metastatic breast cancer; format: in vivo, human
Source text: as §1

clinical = conditions: human
Method: (§2) Plasma was obtained by centrifugation at 2,450 g for 10 min at 4°C of whole blood EDTA tubes and stored at −80°C until analysis. Patients’ samples were analyzed with a newly developed LC-MS/MS method as previously reported ([Posocco et al., 2020]). Drug concentration was usually evaluated at specific time points, which allowed the evaluation of Cmin or Cmax at steady state. […] Last administration (self-reported) and sampling times were also recorded. According to the literature ([Verheijen et al., 2017]), the average exposure of the approved efficacious dose was used as a proxy of target Cmin and will be referred to as “target Cmin” in this article.
(§3) Descriptive statistics were used to present and analyze the TDM data. The mean population Cmin value reported in the literature for patients treated with the standard dose was used to evaluate the TDM target, and the ±20% intervals were calculated. This interval was based on acceptable variability of analytical data according to incurred sample reanalysis criteria ([FDA, 2018]; [EMA, 2022]). Patients who fell outside this range were considered to be potentially under or overexposed to the drugs.

[3] = Therapeutic drug monitoring: steady-state plasma concentration in patients by LC-MS/MS
Method: as §2, §3

[4] = cited from earlier work
P-glycoprotein (P-gp) = conditions: background statement, no reference given; cited from earlier work
[5] = system: breast cancer resistance protein (BCRP); conditions: background statement, no reference given; cited from earlier work
UGT = conditions: background statement, no reference given; cited from earlier work

For `CC(=O)c1c(C)c2cnc(Nc3ccc(N4CCNCC4)cn3)nc2n(C2CCCC2)c1=O` [palbociclib], the “neutropenia grade after dose reduction” value ([1]; Case II) was “grade 4”, the “neutropenia grade after dose reduction” value ([1]; Case V) was “grade 3” and the “Patient's clinical outcome” value ([2]; Case I, palbociclib 75 mg/day + fulvestrant, II line) was “systemic PD”. For the same molecule, the “Patient's clinical outcome” value ([2]; Case I, palbociclib 75 mg/day + fulvestrant, II line, listed as Palbociclib) was “Palbociclib treatment failure due to disease progression”, the concentration at 24 h (clinical; plasma, oral) was 49 to 73 ng/mL and the “Cmin (minimum plasma concentration)” value ([3]; Case I, palbociclib 75 mg/day + fulvestrant, steady state, 24 h after last intake) was 27.3 ng/ml (palbociclib 75 mg/day). The Cmin ([3]; Case II, after dose reduction to palbociclib 100 mg/day) was 62.3 ng/mL and the concentration at 24 h ([3]; human, plasma, oral, 100 mg/day) was 62.3 ng/mL.

In the case of `CCN1CCN(Cc2ccc(Nc3ncc(F)c(-c4cc(F)c5nc(C)n(C(C)C)c5c4)n3)nc2)CC1` [abemaciclib], the “proposed target Cmin” value ([4]; abemaciclib, MONARCH 3 patients, 132 mg/twice day, ref US Food and Drug Administration, 2017b) is listed as 181 ng/mL, the “substrate of the efflux transporter P-gp” value (P-glycoprotein (P-gp)) is listed as “substrates” and the “substrate of / transport by BCRP” value [5] is listed as “substrates”.

For `N#Cc1ccc(C(c2ccc(C#N)cc2)n2cncn2)cc1` [letrozole], the “proposed Cmin target value” ([4]; letrozole, dedicated exposure-efficacy studies, ref FDA, 2021a) is given as 85.6 ng/mL.

In the case of `CN(C)C(=O)c1cc2cnc(Nc3ccc(N4CCNCC4)cn3)nc2n1C1CCCC1` [ribociclib], the “Patient's clinical outcome” value ([2]; Case III, ribociclib 600 mg/day reduced to 400 mg and then 200 mg, I line) is given as “disease progression”, the “Patient's clinical outcome” value ([2]; Case III, ribociclib 600 mg/day reduced to 400 mg and then 200 mg, I line, listed as Ribociclib) is given as “The dose of ribociclib was reduced after more than 1 year of intermittent treatment due to toxicity. Ribociclib treatment ultimately failed” and the “reported mean Cmin (target population Cmin)” value ([4]; ribociclib standard dose 600 mg/day, ref FDA, 2021b) is given as 732 ng/mL. The “mean steady-state population Cmax” value ([4]; ribociclib) was 2,237 ng/ml, the “substrate of the efflux transporter P-gp” value (P-glycoprotein (P-gp)) was “substrate” and the “substrate of / transport by BCRP” value [5] was “no noticeable transport”. The “glucuronidation reaction by UGT” value (UGT) was “undergo a glucuronidation reaction” and the concentration at 24 h (clinical; in vivo) was 586 to 878 ng/mL.
